Legend:
[1] = system: noncancerous CHO cells; assay: Cytotoxicity against noncancerous CHO cells; assay type: cell-based; conditions: for S.I. (selectivity index): average IC50 toward normal cells divided by the average IC50 for the malignant cells; for IC50: noncancerous cells
Source text: In order to preliminarily assess the possible toxic effect on noncancerous cells, we also evaluated the cytotoxic potential of the newly developed Cu(II) complexes against noncancerous CHO cells (Table 3). For all tested complexes, calculated IC50 values were higher than those obtained (on average) against tumour cells, thus indicating for this class of metal complexes a slightly preferential cytotoxicity against cancer cells, as attested by the calculated selectivity index values (SI = the quotient of the average IC50 toward normal cells divided by the average IC50 for the malignant cells).
(§1) The growth inhibitory effect toward the tumour cell lines was evaluated by the MTT test as previously described.

[2] = system: genomic DNA of MDA-MB-231 cells; conditions: 3 h; for cells with lesioned genomic DNA (comets): 4 μM, fraction of treated cells
Procedure: As proof of the principle of their DNA-targeting ability, the alkaline single-cell gel electrophoresis (Comet assay, Figure 4) assay was performed to evaluate cellular genomic DNA lesions induced by tested complexes. […] MDA-MDB-231 cells were exposed for 3 h to 4 μM of tested compounds or 200 µM of the reference drug chlorambucil. Figure 4A depicts the relative percentage of comets and the number of cells forming a comet relative to the total number of detected cells per each condition in two randomly captured fields from two independent experiments. […] On the other hand, some reports highlighted protein disulphide isomerase (PDI) as an emerging target for copper complexes. On this basis, we also evaluated the ability of our complexes to act as PDI inhibitors. The enzyme was treated with 25 µM of complexes 2 and 4, and the ability to hamper its activity was assessed by a biochemical colourimetric method (Proteostat kit).
About 3 × 10^4 MDA-MB-231 cells were seeded in 25 cm^2 flasks in a growth medium. After overnight incubation, cells were treated for 3 h with […] of tested compounds and processed as previously described. Pictures were captured with a Zeiss LSM-800 confocal microscope (Zeiss, Oberkochen, Germany). All photos were analyzed by the Zen 2.3 system (Zeiss, Oberkochen, Germany).
Figure 4 Mechanistic studies. (A) Comet assay: MDA-MDB-231 cells were treated for 3 h with 4 μM of tested compounds 2 and 4 or 200 µM of the reference drug chlorambucil. The relative percentage of comets (number of cells forming a comet/total number of cells) was detected in two randomly captured fields from two independent experiments. (B) PDI inhibition induced by tested compounds was measured by Proteostat PDI assay kit. The PDI inhibitor Bacitracine (0.5 mM) was used as a positive control. Error bars indicate S.D. ** p < 0.01 compared with control.

[3] = system: MDA-MB-231 cells; conditions: 3 μM, 24 and 48 h
[4] = system: MDA-MB-231 cells; conditions: 24 h, 2 and 3 μM
Procedure: The ability to enter cancer cells is a very important factor to determine the biological activity of metal-based compounds. Consequently, with the aim of correlating the antiproliferative activity elicited by all the newly developed complexes and their accumulation profiles into cancer cells, the Cu content was evaluated in the SMVT overexpressing MDA-MB-231 cells. Uptake profiles were determined by treating cancer cells for 24 h with two concentrations (2 and 3 μM) of tested complexes.
MDA-MB-231 cells (2.5 × 10^6) were seeded in 75 cm^2 flasks in a growth medium (20 mL). Following 24 h, cells were treated for 24 h with tested complexes and samples processed as previously described.
Figure 2 Cellular uptake of complexes 1–4 in drug-treated MDA-MB-231 human breast cancer cells. Cells were incubated for 24 h with […] of tested complexes. The amount of cellular Cu was estimated by GF-AAS. Error bars are S.D.

[5] = system: six different cancer cell lines; assay: MTT cytotoxicity, average over the cancer cell line panel; assay type: cell-based, human; conditions: 2D assays, average over the cancer cell lines of Table 1
Procedure: The in vitro anticancer potential of the newly developed complexes and of the ligands has been tested on six different cancer cell lines including PSN-1 (pancreatic), HCT-15 (colorectal with low sensitivity for cisplatin), 2008 (ovarian), A431 (cervical), MDA-MB-231 (breast), and U1285 (lung) cancer cells. For comparison purposes, cisplatin efficacy was assessed under the same experimental conditions.
Due to note, all the complexes were very effective in the MDA-MB-231 cell line, which overexpress the SMVT (sodium-dependent multivitamin transporter) receptor, which is well known to be involved in the intracellular translocation of biotin [24].
as §1

Row | Compound | S.I. (selectivity index) [1] | IC50 [1] | cells with lesioned genomic DNA (comets) [2] | apoptosis induction (Hoechst staining) [3] | DNA damaging efficacy compared with chlorambucil ([2]; 4 μM compound vs 200 µM chlorambucil) | Cu intracellular content (uptake) [4] | IC50 [5]
1 | O=C(CCCC[C@@H]1SC[C@@H]2NC(=O)N[C@@H]21)NN=C1C(=O)c2ccc[n+]3c2-c2c1ccc[n+]2[Cu-2]3([Cl])[Cl] [Complex 2, [Cu(phendione-biotin)Cl2]] | 3.7 | 5200 ± 300 nM | at least one fourth | – | – | – | –
2 | O=C(CCCC[C@@H]1SC[C@@H]2NC(=O)N[C@@H]21)NN=C1C(=O)c2ccc[n+]3c2-c2c1ccc[n+]2[Cu-2]31[n+]2cccc3ccc4ccc[n+]1c4c32.O=[N+]([O-])[O-].O=[N+]([O-])[O-] [Complex 4, [Cu(phen)(phendione-biotin)](NO3)2] | 2.3 | 1800 ± 700 nM | one third | morphological features typical of cells undergoing apoptosis | much higher than that induced by the reference compound chlorambucil | most internalised into cancer cells | 800 nM

Reference: article PMC10222323, “Novel Biotinylated Cu(II)-Phenanthroline Complexes: 2D and 3D Cytotoxic Activity and Mechanistic Insight” (Molecules, 2023)
